Experimental data reported in patent US9856242B2, “5-fluoro-N-(pyridin-2-yl)pyridin-2-amine derivatives containing a sulfone group” (Bayer Pharma Aktiengesellschaft, priority 2014, dated 2018).

Columns and labels:
[1] = test system: B16F10 cells; assay: Proliferation assay (Method 3), B16F10; type: cell-based; conditions: B16-F10, 96 h; mouse melanoma, 4 days, crystal violet; read-out: Inhibition of B16F10 cell proliferation IC50
Protocol: (§1) Cultivated tumour cells (HeLa, human cervical tumour cells, ATCC CCL-2; NCI-H460, human non-small cell lung carcinoma cells, ATCC HTB-177; A2780, human ovarian carcinoma cells, ECACC #93112519; DU 145, hormone-independent human prostate carcinoma cells, ATCC HTB-81; HeLa-MaTu-ADR, multidrug-resistant human cervical carcinoma cells, EPO-GmbH Berlin; Caco-2, human colorectal carcinoma cells, ATCC HTB-37; B16F10, mouse melanoma cells, ATCC CRL-6475) were plated at a density of 5,000 cells/well (DU145, HeLa-MaTu-ADR), 3,000 cells/well (NCI-H460, HeLa), 2,500 cells/well (A2780), 1,500 cells/well (Caco-2), or 1,000 cells/well (B16F10) in a 96-well multititer plate in 200 μL of their respective growth medium supplemented 10% fetal calf serum. After 24 hours, the cells of one plate (zero-point plate) were stained with crystal violet (see below), while the medium of the other plates was replaced by fresh culture medium (200 μl), to which the test substances were added in various concentrations (0 μM, as well as in the range of 0.001-10 μM; the final concentration of the solvent dimethyl sulfoxide was 0.5%). The cells were incubated for 4 days in the presence of test substances. Cell proliferation was determined by staining the cells with crystal violet: the cells were fixed by adding 20 μl/measuring point of an 11% glutaric aldehyde solution for 15 minutes at room temperature. After three washing cycles of the fixed cells with water, the plates were dried at room temperature. The cells were stained by adding 100 μl/measuring point of a 0.1% crystal violet solution (pH 3.0). After three washing cycles of the stained cells with water, the plates were dried at room temperature. The dye was dissolved by adding 100 μl/measuring point of a 10% acetic acid solution. The extinction was determined by photometry at a wavelength of 595 nm. The change of cell number, in percent, was calculated by normalization of the measured values to the extinction values of the zero-point plate (=0%) and the extinction of the untreated (0 μm) cells (=100%). The IC50 values (inhibitory concentration at 50% of maximal effect) were determined by means of a 4 parameter fit.

[2] = test system: HeLa cells; assay: Proliferation assay (Method 3), HeLa; type: cell-based; conditions: 96 h, human cervical tumour, 4 days, crystal violet, read-out: Inhibition of HeLa cell proliferation IC50
Protocol: as §1

[3] = test system: HeLa-MaTu-ADR cells; assay: Proliferation assay (Method 3), HeLa-MaTu-ADR; type: cell-based; conditions: 96 h; multidrug-resistant human cervical carcinoma, 4 days, crystal violet; read-out: Inhibition of HeLa-MaTu-ADR cell proliferation IC50
Protocol: as §1

[4] = test system: NCI-H460 cells; assay: Proliferation assay (Method 3), NCI-H460; type: cell-based; conditions: NCI-H460, 96 h; human non-small cell lung carcinoma, 4 days, crystal violet; read-out: Inhibition of NCI-H460 cell proliferation IC50
Protocol: as §1

[5] = test system: DU145 cells; assay: Proliferation assay (Method 3), DU145; type: cell-based; conditions: DU-145, 96 h; hormone-independent human prostate carcinoma, 4 days, crystal violet; read-out: Inhibition of DU145 cell proliferation IC50
Protocol: as §1

[6] = target: T1, CDK9/CycT1 (Homo sapiens, UniProt P50750); assay: CDK9/CycT1 kinase assay (Method 1a, TR-FRET, 10 μM ATP); type: biochemical; conditions: for IC50: Method 1a, 10 μM ATP; for Selectivity CDK9/CDK2: according to Methods 1a and 2a (ratio of CDK2 IC50 to CDK9 IC50)
T1 construct: Recombinant full-length His-tagged human CDK9 and CycT1; His; purchased Invitrogen PV4131; host or cells: insect cells
T1 sequence (P50750 whole entry): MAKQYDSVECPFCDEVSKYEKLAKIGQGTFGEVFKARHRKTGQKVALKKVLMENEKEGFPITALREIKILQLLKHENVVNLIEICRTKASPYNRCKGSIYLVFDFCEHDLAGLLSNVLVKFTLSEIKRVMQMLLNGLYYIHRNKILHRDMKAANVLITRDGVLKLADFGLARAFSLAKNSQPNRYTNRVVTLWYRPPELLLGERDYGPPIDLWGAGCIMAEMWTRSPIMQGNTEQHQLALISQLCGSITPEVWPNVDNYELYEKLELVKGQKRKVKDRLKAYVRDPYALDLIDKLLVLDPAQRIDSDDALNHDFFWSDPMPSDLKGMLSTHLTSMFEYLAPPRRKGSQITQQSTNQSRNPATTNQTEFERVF
T1 sequence (O60563 whole entry partner): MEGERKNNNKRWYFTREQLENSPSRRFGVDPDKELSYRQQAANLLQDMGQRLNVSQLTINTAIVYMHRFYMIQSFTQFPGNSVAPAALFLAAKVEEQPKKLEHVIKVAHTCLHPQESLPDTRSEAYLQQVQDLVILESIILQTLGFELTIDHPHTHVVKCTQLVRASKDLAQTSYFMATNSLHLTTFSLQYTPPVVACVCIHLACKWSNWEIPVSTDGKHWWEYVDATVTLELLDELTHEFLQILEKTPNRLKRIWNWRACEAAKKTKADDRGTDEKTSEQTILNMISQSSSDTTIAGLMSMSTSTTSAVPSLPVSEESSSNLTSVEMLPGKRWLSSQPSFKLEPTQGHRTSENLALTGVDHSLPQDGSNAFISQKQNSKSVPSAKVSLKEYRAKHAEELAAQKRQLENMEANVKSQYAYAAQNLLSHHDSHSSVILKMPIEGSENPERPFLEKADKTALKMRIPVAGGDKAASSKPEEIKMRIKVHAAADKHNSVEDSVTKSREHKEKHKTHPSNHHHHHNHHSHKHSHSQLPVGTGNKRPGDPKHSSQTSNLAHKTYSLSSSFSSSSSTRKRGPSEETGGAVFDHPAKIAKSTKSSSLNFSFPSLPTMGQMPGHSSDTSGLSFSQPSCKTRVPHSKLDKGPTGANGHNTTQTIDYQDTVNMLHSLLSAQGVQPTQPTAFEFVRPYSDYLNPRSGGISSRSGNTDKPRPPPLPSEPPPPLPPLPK
Text: 1a. CDK9/CycT1 Kinase Assay:
CDK9/CycT1-inhibitory activity of compounds of the present invention was quantified employing the CDK9/CycT1 TR-FRET assay as described in the following paragraphs:
Recombinant full-length His-tagged human CDK9 and CycT1, expressed in insect cells and purified by Ni-NTA affinity chromatography, were purchased from Invitrogen (Cat. No PV4131). As substrate for the kinase reaction biotinylated peptide biotin-Ttds-YISPLKSPYKISEG (C-terminus in amid form) was used which can be purchased e.g. form the company JERINI Peptide Technologies (Berlin, Germany). For the assay 50 n1 of a 100 fold concentrated solution of the test compound in DMSO was pipetted into a black low volume 384 well microtiter plate (Greiner Bio-One, Frickenhausen, Germany), 2 μl of a solution of CDK9/CycT1 in aqueous assay buffer [50 mM Tris/HCl pH 8.0, 10 mM MgCl2, 1.0 mM dithiothreitol, 0.1 mM sodium ortho-vanadate, 0.01% (v/v) Nonidet-P40 (Sigma)] were added and the mixture was incubated for 15 min at 22° C. to allow pre-binding of the test compounds to the enzyme before the start of the kinase reaction. Then the kinase reaction was started by the addition of 3 μl of a solution of adenosine-tri-phosphate (ATP, 16.7 μM=>final conc. in the 5 μl assay volume is 10 μM) and substrate (1.67 μM=>final conc. in the 5 μl assay volume is 1 μM) in assay buffer and the resulting mixture was incubated for a reaction time of 25 min at 22° C. The concentration of CDK9/CycT1 was adjusted depending of the activity of the enzyme lot and was chosen appropriate to have the assay in the linear range, typical concentrations were in the range of 1 μg/mL. The reaction was stopped by the addition of 5 μl of a solution of TR-FRET detection reagents (0.2 μM streptavidine-XL665 [Cisbio Bioassays, Codolet, France] and 1 nM anti-RB(pSer807/pSer811)-antibody from BD Pharmingen [#558389] and 1.2 nM LANCE EU-W1024 labeled anti-mouse IgG antibody [Perkin-Elmer, product no. AD0077]) in an aqueous EDTA-solution (100 mM EDTA, 0.2% (w/v) bovine serum albumin in 100 mM HEPES/NaOH pH 7.0).
The resulting mixture was incubated 1 h at 22° C. to allow the formation of complex between the phosphorylated biotinylated peptide and the detection reagents. Subsequently the amount of phosphorylated substrate was evaluated by measurement of the resonance energy transfer from the Eu-chelate to the streptavidine-XL. Therefore, the fluorescence emissions at 620 nm and 665 nm after excitation at 350 nm was measured in a HTRF reader, e.g. a Rubystar (BMG Labtechnologies, Offenburg, Germany) or a Viewlux (Perkin-Elmer). The ratio of the emissions at 665 nm and at […] was taken as the measure for the amount of phosphorylated substrate. The data were normalised (enzyme reaction without inhibitor=0% inhibition, all other assay components but no enzyme=100% inhibition).

CS(=O)(=O)Cc1ccnc(Nc2cc(-c3cccc4ccoc34)c(F)cn2)c1 [Example 5, 4-(1-Benzofuran-7-yl)-5-fluoro-N-{4-[(methylsulfonyl)methyl]pyridin-2-yl}pyridin-2-amine]
IC50 [1]: 120 nM | IC50 [2]: 68 nM | IC50 [3]: 68 nM | IC50 [4]: 91 nM | IC50 [5]: 58 nM | IC50 [6]: 4 nM | Selectivity CDK9/CDK2 [6]: 17

Cc1cc(CS(C)(=O)=O)cc(Nc2cc(-c3ccc(F)c4ccoc34)c(F)cn2)n1 [Example 3, 5-Fluoro-4-(4-fluoro-1-benzofuran-7-yl)-N-{6-methyl-4-[(methylsulfonyl)methyl]pyridin-2-yl}pyridin-2-amine]
IC50 [1]: 32 nM | IC50 [2]: 12 nM | IC50 [3]: 18 nM | IC50 [4]: 19 nM | IC50 [5]: 24 nM

CS(=O)(=O)Cc1ccnc(Nc2cc(-c3ccc(F)c4ccoc34)c(F)cn2)c1 [Example 1, 5-Fluoro-4-(4-fluoro-1-benzofuran-7-yl)-N-{4-[(methylsulfonyl)methyl]pyridin-2-yl}pyridin-2-amine]
IC50 [1]: 70 nM | IC50 [2]: 6 nM | IC50 [3]: 36 nM | IC50 [4]: 37 nM | IC50 [5]: 34 nM | IC50 [6]: 3 nM | Selectivity CDK9/CDK2 [6]: 29

CS(=O)(=O)Cc1cc(F)nc(Nc2cc(-c3ccc(F)c4ccoc34)c(F)cn2)c1 [Example 2, 5-Fluoro-4-(4-fluoro-1-benzofuran-7-yl)-N-{6-fluoro-4-[(methylsulfonyl)methyl]pyridin-2-yl}pyridin-2-amine]
IC50 [1]: 59 nM | IC50 [2]: 40 nM | IC50 [3]: 24 nM | IC50 [4]: 48 nM | IC50 [5]: 36 nM | IC50 [6]: 4 nM | Selectivity CDK9/CDK2 [6]: 18

CS(=O)(=O)Cc1cc(Nc2cc(-c3ccc(F)c4ccoc34)c(F)cn2)nc(C(F)(F)F)c1 [Example 4, 5-Fluoro-4-(4-fluoro-1-benzofuran-7-yl)-N-{4-[(methylsulfonyl)methyl]-6-(trifluoromethyl)pyridin-2-yl}pyridin-2-amine]
IC50 [1]: 31 nM | IC50 [2]: 13 nM | IC50 [3]: 23 nM | IC50 [4]: 33 nM | IC50 [5]: 30 nM
